The values that follow come from patent US20180185520A1, “COLLAGEN IMAGING COMPOSTIONS” (Collagen Medical, LLC, priority 2015, published 2018).

For one series, the system named is liver fibrosis. Briefly: Detection of liver fibrosis by MRI, mouse CCl4 model. Particulars: 10 μmol/kg i.v., out to 45 minutes, 7T. The class given is in vivo, C57BL/6 male mice. Here is the method: Strain C57BL/6 male mice at approximately 3 weeks of age were purchased from Jackson Laboratory (Bar Harbor, Me.). All mice were randomly assigned to two groups: a control group (n=3) and a CCl4 group (n=8). Mice were treated three times a week for 10 weeks with either 0.04 mL of a 40 percent solution of CCl4 (Sigma, St. Louis, Mo.) in olive oil or with vehicle (olive oil only) by oral gavage. Animals from both models were imaged one week after the last injection. Mice were imaged on a 7T pre-clinical […] scanner (Bruker Biospin, Billerica, Mass.). Mice were imaged before and immediately after a 10 μmol/kg intravenous injection of COMPOUND ID NO. 1 and imaging was repeated out to 45 minutes post-injection. Following imaging, animals were sacrificed 50 min post COMPOUND ID NO. 1 injection and sections of each of the liver lobes were taken for gadolinium analysis by ICP-MS, hydroxyproline (Hyp) determination, and histology (Sirius Red staining). From the MRI data, the contrast to noise ratio (CNR, where CNR=(signal liver-signal muscle)/noise) was calculated for the liver before and at repeated time points after 10 μmol/kg injection of the COMPOUND ID NO. 1. After probe COMPOUND ID NO. […] Plots of CNR as a function of time post injection were made and the area under this CNR vs time curve was calculated. […] 1 in liver as assessed by gadolinium measurement (R^2=0.83). […]

Series [1] has as its target T1, rat collagen (acid soluble, type I, rat tail) (Rattus norvegicus, UniProt P02454+P02466).
T1 construct: purchased Millipore Inc 08-115; host or cells: rat tail
The series can be described thus: Collagen binding assay, dried rat collagen in microtiter plate. As to conditions: 37° C., pH 7.4. How it is done:
10 ml of a 3.79 mg/mL solution of rat collagen (acid soluble, type I, rat tail, Millipore Inc, cat#08-115) is dialyzed against 10 mM Phosphate (NaH2PO4), pH 4.2 at 4° C. with three changes of the dialysis buffer.
Ice-cold 1×PBS pH 10.8 is added to the collagen solution for a final collagen concentration of 10 μM, pH 7.4. Collagen solutions are gelled and dried down in the wells of a 96 well microtiter plate (Corning Polystyrene Flat Bottom, cat#3641). 70 μl of 10 μM collagen is aliquoted into each well in every other lane in the plate (48 wells) and the plate is incubated at 37° C. for 18 hours to form a gel and evaporate to dryness. […] The final well content of gelled collagen is measured by determination of hydroxyproline and is around 180 μg/ml.
a serial dilution of 0.2 μM-30 μM of the peptide chelate is prepared in PBS, pH 7.4 ([…], of solution for each concentration). […] The concentration of free, unbound compound in the sample supernatants and the concentration of compound in the reserved (total) sample are determined by ICP-MS (Agilent 7500, gadolinium concentration). The concentration of compound bound to collagen is determined as [bound]=[total]−[unbound].
The binding of compounds to human, rat and dog collagen (5 μM) was measured over the concentration range 0.2-5 μM of Comp ID Nos.: 1-4. […]

Series [2] in a line: Pharmacokinetics (rat), plasma gadolinium by ICP-MS. The class given is in vivo, Sprague Dawley rats. As to conditions: 1.3 umol/kg iv bolus in 80 mM sucrose, pH 7, plasma 2-90 minutes. How it is done:
Compound ID No. 1 was formulated at pH 7 in 80 mM sucrose and administered to Sprague Dawley rats (n=2) at dose of 1.3 umol/kg using a bolus IV injection. Plasma was sampled at 2, 5, 15, 30, and 90 minutes post-injection and analyzed for gadolinium content using ICP-MS (FIG. 15).

As a reminder, the Kd is the constant that tells how readily two partners part at equilibrium.

Molecules are shown by their SMILES.

In the case of `CC(C)C[C@H](NC(=O)[C@@H]1CSSC[C@H](NC(=O)[C@H](Cc2c[nH]cn2)NC(=O)[C@H](Cc2c[nH]c3ccccc23)NC(=O)[C@H](CCCCNC(=O)CC[C@H](C(=O)O)N2CCN(CC(=O)O)CCN(CC(=O)O)CCN(CC(=O)O)CC2)NC(=O)CNC(=O)CC[C@H](C(=O)O)N2CCN(CC(=O)O)CCN(CC(=O)O)CCN(CC(=O)O)CC2)C(=O)N[C@@H]([C@@H](C)O)C(=O)N[C@@H]([C@@H](C)O)C(=O)N[C@@H](CCCCNC(=O)CC[C@H](C(=O)O)N2CCN(CC(=O)O)CCN(CC(=O)O)CCN(CC(=O)O)CC2)C(=O)N[C@@H](Cc2ccccc2)C(=O)N2CCC[C@H]2C(=O)N[C@@H](Cc2c[nH]cn2)C(=O)N[C@@H](Cc2c[nH]cn2)C(=O)N[C@@H](Cc2ccc(O)cc2)C(=O)N1)C(=O)N[C@@H](Cc1ccc(O)cc1)C(=O)N[C@@H](Cc1ccc(-c2ccccc2)cc1)C(N)=O` [Compound ID No. 1], the “area under the CNR vs time curve (liver)” value with liver fibrosis (CCl4 treated mice) came to 1447±192; in the series with liver fibrosis (vehicle (olive oil) treated control mice given the probe), 889±173. This compound came in with a Kd in series [1] of 21.1 µM. Further, the pharmacokinetic profile result in series [2] is on record as “rapid initial blood clearance”.
